Reference: US20110152092A1, “Herbicidal compositions comprising flufenacet” (Bayer CropScience AG, priority 2009, published 2011)

Tests used:
[1] = system: STEME; test: Greenhouse trial, activity with different soil types; format: in vivo, Stellaria media; conditions: g of AS/ha: (A) 120, (B) 1200, (C) 90, mixture 120 + 1200 + 90
Experimental: (§1) In the standard design of the test, seeds of various broad-leaved weed and weed grass biotypes (origins) were sown in a 8-13 cm diameter pot filled with natural soil of a standard field soil (loamy silt; non-sterile) and covered with a covering soil layer of about 1 cm. The pots were then cultivated in a greenhouse (12-16 h of light, temperature day 20-22° C., night 15-18° C.) until the time of application. The pots were treated on a laboratory track sprayer with spray liquors comprising the compositions according to the invention, mixtures of the prior art or components used individually. Application of the active compounds or active compound combinations formulated as WG, WP, EC or otherwise was carried out at the appropriate growth stages of the plants. The application rate for the spray application was 100-600 l of water/ha. After the treatment, the plants were returned to the greenhouses.
(§2) About 3 weeks after the application, the soil action or/and foliar action was assessed visually according to a scale of 0-100% in comparison to an untreated comparative group: 0%=no noticeable effect compared to the untreated comparative group; 100%=full effect compared to the untreated comparative group.
(§3) (notes: the term “seeds” also includes vegetative propagation forms such as, for example, rhizome pieces; abbreviations used: h light=hours of illumination, g of AS/ha=gram of active substance per hectare, l/ha=liter per hectare, S=sensitive, R=resistant) • 1. Pre-emergence action against weeds: seeds of various broad-leaved weed and weed grass biotypes (origins) were sown in a 8-13 cm diameter pot filled with natural soil of a standard field soil (loamy silt; non-sterile) and covered with a covering soil layer of about 1 cm. The pots were then cultivated in a greenhouse (12-16 h of light, temperature day 20-22° C., night 15-18° C.) until the time of application. The pots were treated at the BBCH stage 00-10 of the seeds/plants on a laboratory track sprayer with spray liquors comprising the compositions according to the invention, mixtures or components used individually, as WG, WP, EC or other formulations. The application rate for the spray application was 100-600 l of water/ha. After the treatment, the plants were returned to the greenhouses and, when required, treated with fertilizer and watered. • 2. Post-emergence action against weeds: seeds of various broad-leaved weed and weed grass biotypes (origins) were sown in a 8-13 cm diameter pot filled with natural soil of a standard field soil (loamy silt; non-sterile) and covered with a covering soil layer of about 1 cm. The pots were then cultivated in a greenhouse (12-16 h of light, temperature day 20-22° C., night 15-18° C.) until the time of application. The pots were treated at various BBCH stages between 11-25 of the seeds/plants, i.e. generally between two to three weeks after the start of the cultivation, on a laboratory track sprayer with spray liquors comprising the compositions according to the invention, mixtures or components used individually, as WG, WP, EC or other formulations. The application rate for the spray application was 100-600 l of water/ha. After the treatment, the plants were returned to the greenhouses and, when required, treated with fertilizer and watered. • 3. Selective pre-emergence action: seeds of various crop species (origins) were sown in a 8-13 cm diameter pot filled with natural soil of a standard field soil (loamy silt; non-sterile) and covered with a covering soil layer of about 1 cm. The pots were then cultivated in a greenhouse (12-16 h of light, temperature day 20-22° C., night 15-18° C.) until the time of application. The pots were treated at the BBCH stage 00-10 of the seeds/plants on a laboratory track sprayer with spray liquors comprising the compositions according to the invention, mixtures or components used individually, as WG, WP, EC or other formulations. The application rate for the spray application was 100-600 l of water/ha. […]

[2] = system: ALOMY; test: Greenhouse trial, PE application on sensitive and resistant biotypes (test method 8); format: in vivo, Alopecurus myosuroides; conditions: g of AS/ha: (A) 90, (B) 1200, (C) 90, mixture 90 + 1200 + 90, iodosulfuron 10
Experimental: as §1, §2, §3

[3] = system: MATCH; test: Greenhouse trial, activity with different soil types; format: in vivo, Matricaria chamomilla; conditions: g of AS/ha: (A) 120, (B) 1200, (C) 90, mixture 120 + 1200 + 90
Experimental: as §1, §2
(notes: the term “seeds” also includes vegetative propagation forms such as, for example, rhizome pieces; abbreviations used: h light=hours of illumination, g of AS/ha=gram of active substance per hectare, l/ha=liter per hectare, S=sensitive, R=resistant) • 1. Pre-emergence action against weeds: seeds of various broad-leaved weed and weed grass biotypes (origins) were sown in a 8-13 cm diameter pot filled with natural soil of a standard field soil (loamy silt; non-sterile) and covered with a covering soil layer of about 1 cm. The pots were then cultivated in a greenhouse (12-16 h of light, temperature day 20-22° C., night 15-18° C.) until the time of application. The pots were treated at the BBCH stage 00-10 of the seeds/plants on a laboratory track sprayer with spray liquors comprising the compositions according to the invention, mixtures or components used individually, as WG, WP, EC or other formulations. The application rate for the spray application was 100-600 l of water/ha. After the treatment, the plants were returned to the greenhouses and, when required, treated with fertilizer and watered. • 2. Post-emergence action against weeds: seeds of various broad-leaved weed and weed grass biotypes (origins) were sown in a 8-13 cm diameter pot filled with natural soil of a standard field soil (loamy silt; non-sterile) and covered with a covering soil layer of about 1 cm. The pots were then cultivated in a greenhouse (12-16 h of light, temperature day 20-22° C., night 15-18° C.) until the time of application. The pots were treated at various BBCH stages between 11-25 of the seeds/plants, i.e. generally between two to three weeks after the start of the cultivation, on a laboratory track sprayer with spray liquors comprising the compositions according to the invention, mixtures or components used individually, as WG, WP, EC or other formulations. The application rate for the spray application was 100-600 l of water/ha. After the treatment, the plants were returned to the greenhouses and, when required, treated with fertilizer and watered. • 3. […]

[4] = system: LOLPE; test: Greenhouse trial, PO application, post-emergence action against weeds (test method 2); format: in vivo, Lolium perenne; conditions: g of AS/ha: (A) 120, (B) 1200, (C) 120, mixture 120 + 1200 + 120
Experimental: as §1
About 3 weeks after the application, the soil action or/and foliar action was assessed visually according to a scale of 0-100% in comparison to an untreated comparative group: 0%=no noticeable effect compared to the untreated comparative group; 100%=full effect compared to the untreated comparative group. […]

[5] = system: APESV; test: Greenhouse trial, PE application at different sowing depths (test method 9); format: in vivo, Apera Spica-venti; conditions: sowing depth 5 mm, g of AS/ha: (A) 120, (B) 1200, (C) 90, mixture 90 + 1200 + 90
Experimental: as §1, §2
(§4) (notes: the term “seeds” also includes vegetative propagation forms such as, for example, rhizome pieces; abbreviations used: h light=hours of illumination, g of AS/ha=gram of active substance per hectare, l/ha=liter per hectare, S=sensitive, R=resistant) • 1. Pre-emergence action against weeds: seeds of various broad-leaved weed and weed grass biotypes (origins) were sown in a 8-13 cm diameter pot filled with natural soil of a standard field soil (loamy silt; non-sterile) and covered with a covering soil layer of about 1 cm. The pots were then cultivated in a greenhouse (12-16 h of light, temperature day 20-22° C., night 15-18° C.) until the time of application. […]

[6] = system: MATCH; test: Greenhouse trial, PE application with different irrigation variations (test method 6); format: in vivo, Matricaria chamomilla; conditions: irrigation from above, g of AS/ha: (A) 120, (B) 1200, (C) 90, mixture 120 + 1200 + 90
Experimental: as §1, §2, §4

## CC(C)N(C(=O)COc1nnc(C(F)(F)F)s1)c1ccc(F)cc1 [(A) flufenacet, N-(4-fluorophenyl)-N-(1-methylethyl)-2-[[5-(trifluoromethyl)-1,3,4-thiadiazol-2-yl]oxy]acetamide]
[1]; IU soil
  activity STEME IU soil (visual, scale 0-100%): 89%
[1]; IU/EC73 soil versus IU soil
  Difference of the soil types, STEME: −89%
[2]; resistant biotype
  activity ALOMY resistant (visual, scale 0-100%): 68%
[2]; sensitive biotype
  activity ALOMY sensitive (visual, scale 0-100%): 80%
[3]; IU/EC73 soil versus IU soil
  Difference of the soil types, MATCH: −28%
[3]; IU/EC73 soil
  activity MATCH IU/EC73 soil (visual, scale 0-100%): 0%
[4]
  activity LOLPE (visual, scale 0-100%): 65%
[5]
  activity APESV 5 mm (visual, scale 0-100%): 67%
[6]
  activity MATCH (visual, scale 0-100%): 97%
